According to ChEMBL document CHEMBL1201862, “PubChem BioAssay data set” (2004):
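Protocol summary: plate cells (96-well), add compound at 5 concentrations, incubate 48 h, interpolate endpoints linearly. GI50 = concentration required for 50% inhibition of growth.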 Activity calls are given as the source filed them. Rule as the data show it: active = GI50 up to about 1.1 µM and inactive = higher.

Tests used:
Experiment in all cases: NCI anticancer screen, dose series, 48 h
786-0 = tested on: 786-0
ACHN = tested on: ACHN
CAKI-1 = tested on: CAKI-1
HCT-15 = tested on: HCT-15
IGROV-1 = tested on: IGROV-1
LOX IMVI = tested on: LOX IMVI
MOLT-4 = tested on: MOLT-4
Malme-3M = tested on: Malme-3M
NCI/ADR-RES = tested on: NCI/ADR-RES
PC-3 = tested on: PC-3
RXF 393 = tested on: RXF 393
SK-MEL-28 = tested on: SK-MEL-28
SK-OV-3 = tested on: SK-OV-3
SNB-19 = tested on: SNB-19
U-251 = tested on: U-251
UACC-257 = tested on: UACC-257
UO-31 = tested on: UO-31
K562 = tested on: K562
OVCAR-4 = tested on: OVCAR-4
NCI-H460 = tested on: NCI-H460

| SMILES | GI50 (786-0) | GI50 (ACHN) | GI50 (CAKI-1) | GI50 (HCT-15) | GI50 (IGROV-1) | GI50 (LOX IMVI) | GI50 (MOLT-4) | GI50 (Malme-3M) | GI50 (NCI/ADR-RES) | GI50 (PC-3) | GI50 (RXF 393) | GI50 (SK-MEL-28) | GI50 (SK-OV-3) | GI50 (SNB-19) | GI50 (U-251) | GI50 (UACC-257) | GI50 (UO-31) | GI50 (K562) | GI50 (OVCAR-4) | GI50 (NCI-H460) |
| --- | --- | --- | --- | --- | --- | --- | --- | --- | --- | --- | --- | --- | --- | --- | --- | --- | --- | --- | --- | --- |
| COC(=O)C1=CO[C@@H](OC2OC(CO)C(O)C(O)C2O)[C@@H]2[C@H](C)[C@@H](O)[C@@H](O)[C@]12O (stereo not given in full) | > 100 µM (inactive) | > 100 µM (inactive) | 13.4 µM (inactive) | > 100 µM | > 100 µM (inactive) | > 100 µM (inactive) | > 100 µM (inactive) | > 100 µM (inactive) | > 100 µM (inactive) | > 100 µM (inactive) | > 100 µM (inactive) | > 100 µM (inactive) | > 100 µM (inactive) | > 100 µM (inactive) | > 100 µM (inactive) | > 100 µM (inactive) | > 100 µM (inactive) |  |  |  |
| COC(=O)C1=C(C(=O)OC)SC(=C2S[C@@H]3[C@@H]4C[C@H]([C@@H]3S2)[C@H]2C(=O)OC(=O)[C@@H]42)S1 | > 100 µM (inactive) | > 100 µM (inactive) | > 100 µM (inactive) | > 100 µM | > 100 µM (inactive) | > 100 µM (inactive) | > 100 µM (inactive) | > 100 µM (inactive) | > 100 µM (inactive) | > 100 µM (inactive) | > 100 µM (inactive) | > 100 µM (inactive) |  | > 100 µM (inactive) | > 100 µM (inactive) | > 100 µM (inactive) | > 100 µM (inactive) | > 100 µM (inactive) | > 100 µM (inactive) |  |
| CC(C)(C)c1cc(/C=C2/NC(=O)NC2=O)cc(C(C)(C)C)c1O | 15.6 µM (inactive) | 11.8 µM (inactive) | 16.8 µM (inactive) | 13.2 µM | 16 µM (inactive) | 15.8 µM (inactive) | 17.1 µM (inactive) | 19.5 µM (inactive) | 14.1 µM (inactive) | 7.46 µM (inactive) | 6.25 µM (inactive) | 17.5 µM (inactive) | 16.8 µM (inactive) |  | 12.8 µM (inactive) | 16 µM (inactive) |  | 13.2 µM (inactive) | 11.4 µM (inactive) | 14.5 µM (inactive) |
| C=C(CCOC)CCC1CCCCC/C1=N\N(C)C (stereo not given) | > 100 µM (inactive) | > 100 µM (inactive) | > 100 µM (inactive) | > 100 µM | > 100 µM (inactive) | > 100 µM (inactive) | > 100 µM (inactive) | > 100 µM (inactive) | > 100 µM (inactive) | > 100 µM (inactive) | > 100 µM (inactive) | > 100 µM (inactive) | > 100 µM (inactive) | > 100 µM (inactive) | > 100 µM (inactive) |  | > 100 µM (inactive) | > 100 µM (inactive) | > 100 µM (inactive) | > 100 µM (inactive) |
| CC/C=C/C[C@H](O)[C@H]1C[C@H]2O[C@H](CC(=O)OC)C[C@H]2O1 | > 100 µM (inactive) | > 100 µM (inactive) | > 100 µM (inactive) | > 100 µM | > 100 µM (inactive) | > 100 µM (inactive) | > 100 µM (inactive) | > 100 µM (inactive) | > 100 µM (inactive) | > 100 µM (inactive) | > 100 µM (inactive) | > 100 µM (inactive) | > 100 µM (inactive) | > 100 µM (inactive) | > 100 µM (inactive) |  | > 100 µM (inactive) | > 100 µM (inactive) | > 100 µM (inactive) | > 100 µM (inactive) |
| N#CCCN(CCCCN(CCC#N)C(=O)Nc1ccccc1)C(=O)Nc1ccccc1 | > 100 µM (inactive) | > 100 µM (inactive) | > 100 µM (inactive) | > 100 µM | > 100 µM (inactive) | > 100 µM (inactive) | > 100 µM (inactive) | > 100 µM (inactive) | > 100 µM (inactive) | > 100 µM (inactive) | 24.4 µM (inactive) | > 100 µM (inactive) | > 100 µM (inactive) | > 100 µM (inactive) | > 100 µM (inactive) |  | > 100 µM (inactive) | > 100 µM (inactive) | > 100 µM (inactive) | > 100 µM (inactive) |
